According to US20220315574A1, “Beta-Arrestin-Modulating Compounds and Methods of Using Same” (Duke University, priority 2019, published 2022):
Counter-ions that a name gives are not always drawn.

What was measured:
Assay type in all cases: cell-based
[1] = tested on: β2V2R-βarr internalization; experiment: DiscoveRx PathHunter activated receptor endocytosis assay in U2OS cells; details: series of compound concentrations, 30 min pretreatment, isoproterenol dose-response
Protocol: β-arrestin-mediated activated receptor internalization was measure using the DiscoveRx PathHunter activated receptor endocytosis assay according to the manufacturer's protocols (DiscoverRx, Fremont, Calif.). Briefly, an Enzyme Acceptor (EA)-tagged βarr and a ProLink tag localized to endosomes are stably expressed in U2OS cells. Untagged β2V2R is transiently expressed (4 ug of DNA). The next day, cells (25,000 cells per well) were then seeded in white 96-well clear-bottomed assay plates and incubated for 24 h before experiments. On the day of experiment, cells were first treated with compound or vehicle for 30 min, followed by a series concentrations of agonist (Iso) stimulation for 60 min at 37° C. Receptor internalization was detected as luminescence resulting from the complementation of β-galactosidase fragments (Enzyme Acceptor and ProLink) within endosomes. Luminescence signals were measured on a CLARIOstar microplate reader using the PathHunter Detection kit (DiscoveRx).

V2R = experiment: BRET based receptor internalization assay; details: V2R-expressing cells stimulated with AVP
Protocol: BRET-based assays were performed to measure receptor internalization using two complementary bystander BRET-formats. First, the association of the receptor (β2V2R-RlucII or V2R-RlucII, BRET donor) with the early endosome (2×FYVE-mVenus, BRET acceptor) was directly measured following agonist stimulation as described previously (Smith, J. S. et al. C-X-C Motif Chemokine Receptor 3 Splice Variants Differentially Activate Beta-Arrestins to Regulate Downstream Signaling Pathways. Mol Pharmacol 92, 136-150, doi:10.1124/mol.117.108522 (2017)). Second, receptor internalization following agonist stimulation was determined by measuring BRET signal from labeled receptor (β2V2R-RlucII or V2R-RlucII, BRET donor) and plasma membrane component (myr-palm-mVenus, BRET acceptor). Cells were transfected with 2.5 μg V2R-RlucII and 10 μg 2×FYVE-mVenus or 2 μg of myr-palm-mVenus using FuGENE HD (Promega, Madison, Wis.) in an individual 10 cm dish. ˜24 hours post-transfection, cells were seeded in white 96-well clear-bottomed plates at a density of 75,000 cells per well. The following day cells were washed and the media was changed to Hanks' Balanced Salt Solution (HBSS) buffer supplemented with 10 mM HEPES for 1 hours at 37° C. Cells were pretreated with βarr modulating compounds (50 μM) or vehicle, then incubated for 30 min at 37° C. Cells were stimulated with increasing doses of agonist isoproterenol or arginine vasopressin (GenScript). Coelenterazine-h was added to the cells 5 min prior to BRET measurements to a final concentration of 5 μM. BRET measurements were performed using the Synergy2 (BioTek®) microplate reader with a filter set of 410/80 nm and 515/30 nm to detect the RlucII (donor) and mVenus (acceptor) light emissions, respectively. The BRET signal was determined by calculating the ratio of the light intensity emitted by the acceptor over the light intensity emitted by the donor. Net BRET was calculated using this ratio and subtracting the same ratio measured from cells expressing only the BRET donor.

[2] = molecular target: T1, βarr2 recruitment to agonist-activated β2V2R (Homo sapiens, UniProt P32121); experiment: DiscoveRx PathHunter β-arrestin recruitment assay in U2OS cells; details: series of compound concentrations, 30 min pretreatment, isoproterenol dose-response
T1 construct: host or cells: U2OS
Protocol: β-arrestin recruitment to the agonist-activated receptor (02V2R) was measured using the DiscoveRx PathHunter β-arrestin assay (Ahn, S. et al. Allosteric “beta-blocker” isolated from a DNA-encoded small molecule library. Proc Natl Acad Sci U SA 114, 1708-1713, doi:10.1073/pnas.1620645114 (2017)). […] Agonist-stimulated recruitment of βarr2 to the receptor results in the formation of functionally active β-gal enzyme. Addition of substrate generates a chemiluminescence signal directly correlated to the extent of recruitment. U2OS cells co-expressing β2V2R and βarr2 were plated in 96-well clear-bottomed plates at a density of 25,000 cells per well (80 μL per well), 24 hours prior to compound treatment. On the day of experiment, cells were first treated with compound or vehicle for 30 min, followed by agonist (Iso) stimulation for 60 min at 37° C. Cells were then treated with PathHunter™ detection reagents for 90 min at 37° C., and luminescence signals were measured using a CLARIOstar microplate reader (BMG Labtech Inc., Cary, N.C.).

human AT1aR = experiment: Intracellular calcium measurement, receptor desensitization; details: AngII-induced calcium signal
Protocol: Intracellular [Ca^2+] release was measured using FLIPR Calcium 6 with the FlexStation 3 microplate reader according to the manufacturer's instructions (Molecular Devices, LLC). Briefly, HEK293 cells stably expressing human AT1aR were seeded in poly-D-lysine-coated black 96-well assay plates (35,000 cells per well) and incubated for 24 hours. On the day of experiment, cell plates were loaded with the appropriate calcium kit reagents and then treated with βarr small molecule modulators or vehicle for 30 min. Basal fluorescence (FO) was measured, agonist was applied while fluorescence (F) intensity was monitored in real time.

T1 sequence (P32121 whole entry): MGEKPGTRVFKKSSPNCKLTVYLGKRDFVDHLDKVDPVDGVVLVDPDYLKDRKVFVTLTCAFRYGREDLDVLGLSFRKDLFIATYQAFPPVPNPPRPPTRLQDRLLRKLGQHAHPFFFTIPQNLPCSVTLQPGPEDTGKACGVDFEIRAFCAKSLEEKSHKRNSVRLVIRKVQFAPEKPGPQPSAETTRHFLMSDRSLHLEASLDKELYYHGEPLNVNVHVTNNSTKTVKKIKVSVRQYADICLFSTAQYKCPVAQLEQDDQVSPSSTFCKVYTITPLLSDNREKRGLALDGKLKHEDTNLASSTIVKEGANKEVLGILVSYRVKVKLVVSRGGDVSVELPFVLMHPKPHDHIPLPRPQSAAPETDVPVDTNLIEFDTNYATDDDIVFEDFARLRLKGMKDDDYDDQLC

Compound | maximal agonist induced receptor-βarr internalization response [1] | internalization of the receptor and association with early endosomes (V2R) | maximal agonist induced βarr recruitment response [2] | desensitization of AT1aR (human AT1aR)
C=C1C(=O)C23[C@H](O)C1CC[C@H]2[C@]12COC3(O)[C@@H](O)[C@@H]1C(C)(C)CC[C@@H]2O [Cmpd-5, (1R,2S,10S,11R,15S,18R)-9,10,15,18-tetrahydroxy-12,12-dimethyl-6-methylidene-17-oxapentacyclo[7.6.2.15,8.01,11.02,8]octadecan-7-one] | significantly diminished | inhibit | significantly diminished | inhibited
CN(C)c1n/c(=N/Cc2ccco2)ss1 [Cmpd-30, 5-(furan-2-ylmethylimino)-N,N-dimethyl-1,2,4-dithiazol-3-amine;hydrobromide] | significantly diminished | inhibit | significantly diminished | inhibited
C=C1C(=O)OC2CC3(C)OC3CC/C(C)=C\C(OC(C)=O)C12 (stereo not drawn) [Cmpd-64, [(8Z)-3,8-dimethyl-12-methylidene-13-oxo-4,14-dioxatricyclo[9.3.0.03,5]tetradec-8-en-10-yl] acetate] | significantly diminished | inhibit | significantly diminished | inhibited
